From patent US20200055871A1, “ACTIVATORS OF THE RETINOIC ACID INDUCIBLE GENE "RIG-I" PATHWAY AND METHODS OF USE THEREOF” (Kineta Immuno-Oncology LLC, priority 2018, published 2020)
Like-named read-outs stand apart in the source and are kept apart here.

Columns and labels:
[1] = test system: IRF3 signaling pathway in THP1-Lucia™ ISG cells; assay: THP1-Lucia ISG reporter assay: induction of IRF3-dependent gene expression (secreted luciferase); assay type: cell-based, human; details: Homo sapiens, THP1-Lucia ISG, read-out: fold increase of IRF3-dependent luciferase activity over background, THP1 ISG
Description: The compounds were evaluated in the THP1-Lucia™ ISG (interferon stimulated genes) reporter assay to determine if the compounds activate the IRF3 signaling pathway. The THP1-Lucia™ cells (InvivoGen) express the secreted luciferase (Lucia) reporter gene under the control of an IRF-inducible promoter. The reporter cell line was developed from human monocytic leukemia THP-1 cells.
The promoter was comprised of five IFN-stimulated response elements (ISRE) fused to an ISG54 minimal promoter which is unresponsive to NF-kB or AP-1 pathways. […] The IRF3-deficient THP1-Lucia™ ISG IRF3−/−reporter cell line was generated by CRISPR technology from the parent THP1-Lucia™ ISG reporter cell line.
THP1-Lucia™ ISG cells and IRF3-deficient THP1-Lucia™ ISG IRF3−/−cells were differentiated with PMA (100 ng/ml) and stimulated with compounds at the indicated concentrations (5 to 20 μM), positive control, or not treated (background). Luciferase secretion was quantified using the QUANTI-Luc luciferase assay system (InvivoGen) 18 h after stimulation. Data are shown as fold increase luciferase activity over background in Table 7 and represent the IRF3-dependent ISG54 promoter activity by the THP1-Lucia™ ISG cells in response to compounds. […] The fold increase of compounds (10 μM, *20 μM, **5 μM) induced IRF3 dependent luciferase activity is indicated as follows: “≠” indicates less than 2.4 fold increase; “+” indicates a 2.4-4.9 fold increase; “++” indicates a 5-9.9 fold increase; “+++” indicates a 10-19 fold increase; “++++” indicates a 20-39 fold increase; “+++++” indicates greater than or equal to 40 fold increase.

[2] = test system: murine CT26 colon carcinoma cells; assay: RIG-I dependent CXCL10 secretion by CT26 cells (ELISA); assay type: cell-based; details: supernatant 24 h after stimulation
Description: (§1) The CT26 murine colon carcinoma cell line (ATCC) was used to evaluate the induction of CXCL10 secretion. CXCL10 is an important chemokine in tumor immune biology that recruits tumor-specific T cells to the tumor. To confirm that compound-mediated CXCL10 production was RIG-I specific, RIG-1 deficient CT2-RIG-I−/−cells were generated by Kineta Inc. using CRISPR technology.
(§2) CT26 cells were seeded at a density of 1×10^4 cells per well on a 96-well tissue culture plate in 100 μL of cell culture and cells were incubated at 37° C. and 5% CO2 for 24 hr. Next, CT26 cells were treated with compounds at the indicated concentrations. CXCL10 was quantified by ELISA from supernatants taken 24 h after compound stimulation by use of the CXCL10 Duo Set ELISA kit (Cat #DY466, R&D, Minneapolis, Minn., USA) according to the manufacturer's instructions.
(§3) CXCL10 secretion by CT26 cells in response to compounds (in an amount of 5 to 20 μM) of the present disclosure is shown in Table 8. The compound-induced CXCL10 production was RIG-I dependent, since none of the compounds mediated CXCL10 secretion in RIG-I deficient CT26 RIG-I−/−cells (about 0 pg/mL of CXCL10, or below the level of quantitation). The compounds (10 μM, *20 μM, **5 μM) are indicated in the table as follows: “≠” indicates less than 100 pg/mL; “+” indicates 100-199 pg/mL; “++” indicates 200-399 pg/mL; “+++” indicates 400-799 pg/mL; “++++” indicates 800 to 1599 pg/mL; “+++++” indicates greater than or equal to 1600 pg/ml.

[3] = test system: RIG-I deficient CT26 RIG-I−/− cells; assay: CXCL10 secretion by RIG-I deficient CT26 RIG-I−/− cells (ELISA); assay type: cell-based, murine; details: compound 5 to 20 μM, 24 h
Description: as §1, §2, §3

[4] = 10 μM compound, PMA-differentiated cells, 18 h after stimulation
[5] = 20 μM compound (*), PMA-differentiated cells, 18 h after stimulation

| SMILES | fold induction at 10 µM [1, 4] | CXCL10 secretion, CT26 ([2]; 10 μM compound) | CXCL10 secretion, CT26 RIG-I−/− [3] | CXCL10 secretion, CT26 ([2]; 20 μM compound (*)) | also measured |
| --- | --- | --- | --- | --- | --- |
| O=C(Nc1nc2ccc3scnc3c2s1)c1cc2ccccc2cc1OCCN1CCOCC1 [Example 24, N-{3,10-dithia-5,12-diazatricyclo[7.3.0.0^2,^6]dodeca-1,4,6,8,11-pentaen-4-yl}-3-[2-(morpholin-4-yl)ethoxy]naphthalene-2-carboxamide] | 20 to 39 | +++ (400-799 pg/mL) | − |  |  |
| O=C(Nc1nc2ccc3scnc3c2s1)c1ccc2c(c1)OCO2 [Example 4, N-{3,10-dithia-5,12-diazatricyclo[7.3.0.0^2,^6]dodeca-1,4,6,8,11-pentaen-4-yl}-2H-1,3-benzodioxole-5-carboxamide] |  | +++ (400-799 pg/mL) | − |  | fold induction at 10 µM ([1]; 18 h): 10 to 19 |
| CSc1nc2c(ccc3nc(NC(=O)c4cc5ccccc5cc4OCCN4CCOCC4)sc32)s1 [Example 35, N-[11-(methylsulfanyl)-3,10-dithia-5,12-diazatricyclo[7.3.0.0^2,^6]dodeca-1,4,6,8,11-pentaen-4-yl]-3-[2-(morpholin-4-yl)ethoxy]naphthalene-2-carboxamide] | 5 to 9.9 |  | − | ++* (200-399 pg/mL) |  |
| O=C(Nc1nc2ccc3scnc3c2s1)c1ccc(Cl)c(C(F)(F)F)c1 [Example 7, 4-chloro-N-{3,10-dithia-5,12-diazatricyclo[7.3.0.0^2,^6]dodeca-1,4,6,8,11-pentaen-4-yl}-3-(trifluoromethyl)benzamide] | 2.4 to 4.9 | ++++ (800 to 1599 pg/mL) | − |  |  |
| CSc1nc2c(ccc3nc(NC(=O)c4ccc5ccccc5c4)sc32)s1 [Example 19, N-[11-(methylsulfanyl)-3,10-dithia-5,12-diazatricyclo[7.3.0.0^2,^6]dodeca-1,4,6,8,11-pentaen-4-yl]naphthalene-2-carboxamide] | 10 to 19 |  | − | +++* (400-799 pg/mL) |  |
| O=C(Nc1nc2ccc3scnc3c2s1)c1ccc(-c2ccccc2)cc1 [Example 21, N-{3,10-dithia-5,12-diazatricyclo[7.3.0.0^2,^6]dodeca-1,4,6,8,11-pentaen-4-yl}-[1,1′-biphenyl]-4-carboxamide] | 10 to 19 | + (100-199 pg/mL) | − |  |  |
| O=C(Nc1nc2ccc3scnc3c2s1)c1cc2ccccc2cc1OCCN1CC2(COC2)C1 [Example 34, N-{3,10-dithia-5,12-diazatricyclo[7.3.0.0^2,^6]dodeca-1,4,6,8,11-pentaen-4-yl}-3-(2-{2-oxa-6-azaspiro[3.3]heptan-6-yl}ethoxy)naphthalene-2-carboxamide] | 2.4 to 4.9 |  | − |  | CXCL10 secretion, CT26 ([2]; 5 μM compound (**)): +++** (400-799 pg/mL) |
| O=C(Nc1nc2ccc3scnc3c2s1)c1ccc2cc(OCCCCN3CCOCC3)ccc2c1 [Example 39, N-{3,10-dithia-5,12-diazatricyclo[7.3.0.0^2,^6]dodeca-1,4,6,8,11-pentaen-4-yl}-6-[4-(morpholin-4-yl)butoxy]naphthalene-2-carboxamide] | 5 to 9.9 | ++ (200-399 pg/mL) | − |  |  |
| O=C(Nc1nc2ccc3scnc3c2s1)c1ccc2c(c1)CCCC2 [Example 13, N-{3,10-dithia-5,12-diazatricyclo[7.3.0.0^2,^6]dodeca-1,4,6,8,11-pentaen-4-yl}-5,6,7,8-tetrahydronaphthalene-2-carboxamide] |  | +++ (400-799 pg/mL) | − |  | fold induction at 20 µM ([1]; 18 h): 5 to 9.9 |
| O=C(Nc1nc2ccc3scnc3c2s1)c1cccc([N+](=O)[O-])c1 [Example 9, N-{3,10-dithia-5,12-diazatricyclo [7.3.0.0^2,^6]dodeca-1,4,6,8,11-pentaen-4-yl}-3-nitrobenzamide] | 2.4 to 4.9 | +++ (400-799 pg/mL) | − |  |  |
| O=C(Nc1nc2ccc3scnc3c2s1)c1cccc(C(F)(F)F)c1 [Example 8, N-{3,10-dithia-5,12-diazatricyclo[7.3.0.0^2,^6]dodeca-1,4,6,8,11-pentaen-4-yl}-3-(trifluoromethyl)benzamide] |  |  | − | +* (100-199 pg/mL) | fold induction at 20 µM [1, 5]: 10 to 19 |
| O=C(Nc1nc2ccc3scnc3c2s1)c1cc2ccccc2cc1OCCNCCO [Example 46, N-{3,10-dithia-5,12-diazatricyclo[7.3.0.0^2,^6]dodeca-1,4,6,8,11-pentaen-4-yl}-3-{2-[(2-hydroxyethyl)amino]ethoxy}naphthalene-2-carboxamide] |  | +++ (400-799 pg/mL) | − |  | fold induction at 5 µM ([1]; 5 μM compound (**), PMA-differentiated cells, 18 h after stimulation): 2.4 to 4.9 |
| Cc1nc2c(ccc3nc(NC(=O)c4ccc5ccccc5c4)sc32)s1 [Example 23, N-{11-methyl-3,10-dithia-5,12-diazatricyclo[7.3.0.0^2,^6]dodeca-1,4,6,8,11-pentaen-4-yl}naphthalene-2-carboxamide] | 5 to 9.9 |  | − | +++++* (greater than or equal to 1600 pg/ml) |  |
| O=C(Nc1nc2ccc3scnc3c2s1)c1ccc2occc2c1 [Example 15, N-{3,10-dithia-5,12-diazatricyclo[7.3.0.0^2,^6]dodeca-1,4,6,8,11-pentaen-4-yl}-1-benzofuran-5-carboxamide] |  | ++ (200-399 pg/mL) | − |  | fold induction at 20 µM [1, 5]: 2.4 to 4.9 |
| COc1cc(OC)cc(C(=O)Nc2nc3ccc4sc(C)nc4c3s2)c1 [Example 2, 3,5-dimethoxy-N-{11-methyl-3,10-dithia-5,12-diazatricyclo[7.3.0.0^2,^6]dodeca-1,4,6,8,11-pentaen-4-yl}benzamide] | 5 to 9.9 |  | − | ++++* (800 to 1599 pg/mL) |  |
| CCCCCOc1ccc(C(=O)Nc2nc3ccc4sc(C)nc4c3s2)cc1 [Example 5, N-{11-methyl-3,10-dithia-5,12-diazatricyclo[7.3.0.0^2,^6]dodeca-1,4,6,8,11-pentaen-4-yl}-4-(pentyloxy)benzamide] | 5 to 9.9 |  | − | +* (100-199 pg/mL) |  |
